What all share (type): cell-based
One test has as its system A. baumannii 4-MRGN. The method, then:
(§1) The tested bacteria were incubated overnight in 1×TSB broth, centrifuged and washed with 10 mM sodium phosphate buffer containing 1% (w/v) TSB broth. 5×10^5 cfu/ml bacteria were mixed with different peptide concentrations in 10 mM sodium phosphate buffer with 1% (w/v) TSB (final volume 100 μl) and incubated for 2 hours at 37° C. Afterwards we added 100 μl 2×TSB broth and we measured the optical density at 600 nm (Spark 10M, Tecan, Austria). Bacterial growth was monitored for 12 hours, growing at 37° C. with shaking during the measurements each 30 minutes, except for Akkermansia muciniphila which were incubated at 37° C. in an anaerobic jar and growth was measured after 72 hours.

The next test deals with E. faecium 475747. As to the method: as §1
Another test relates to P. aeruginosa ATCC 27853. The method, then: as §1
In a further test the test system is commensal bacteria. The test is described as follows: Radial diffusion assay, HD-5 fragments. The following applies: 4 μg fragment, 2 μg full-length peptide; commensal bacteria (FIG. 3). The method, then: In the RDA 2 μg of the full length and 4 μg of each fragment were used. An inhibition zone greater than 5 mm was determined as high activity, between 2.5 and 5 mm as low activity and 2.5 mm were the diameter of the punched well and therefore no activity.
(§2) Antimicrobial activity of all peptides was tested with a modified radial diffusion assay from Lehrer et al^12 Shortly described, log-phase bacteria grew (anaerobic bacteria with AnaeroGen, Oxoid in anaerobic jars) in liquid tryptic soy broth (TSB) (Becton Dickinson). After several wash steps in 10 mM sodium phosphate buffer pH 7.4, 4×10^6 cfu/ml was used per assay. To measure the antibacterial effect of the identified peptide fragments, the bacteria were incubated in 10 mM sodium phosphate (pH 7.4) containing 0.3 mg/ml TSB powder and 1% (w/v) low EEO-agarose (Applichem). Peptide fragments were then pipetted into punched wells and allowed to diffuse for 3 hours at 37° C. After that a nutrient rich gel with 6% TSB (w/v) and 1% agarose in 10 mM sodium phosphate buffer was poured on top of the first gel. After 24 hours the inhibition zones were measured. […] All experiments were carried out at least three times.

For the next test, the system named is pathogenic bacteria. The test is described as follows: Radial diffusion assay, HD-5 fragments. The following applies: pathogenic Gram-positive and Gram-negative bacteria (FIG. 4). The method, then:
A heat map system with high activity (inhibition zone in the RDA>5 mm), low activity (2.5 to 5 mm) and no activity (2.5 mm) was used.
as §2

Another test deals with A. baumannii DSM 30007. The method, then:
as §1

The test system of the next test is E. coli JM83. As to the method:
as §1

A further test deals with E. faecium DSM 20477. As to the method: as §1
The next test deals with K. pneumoniae 3-MRGN. To be noted: K. pneumoniae 3-MRGN; after 12 hours. The method, then: as §1
The next test relates to K. pneumoniae DSM 30104. The method, then:
as §1

The test system of the next test is P. aeruginosa 4-MRGN. The method, then: as §1
The subject of a further test is P. aeruginosa PAO1. The method, then:
as §1

For the next test, the system named is P. aeruginosa XPAT1. The method, then: as §1
The next test has as its system P. aeruginosa XPAT2. As to the method: as §1
The next test relates to S. aureus ATCC 25923. The method, then:
as §1

A further test concerns S. aureus USA300. The method, then:
as §1

A further test has as its system Y. enterocolitica. As to the method: as §1
The next test relates to C. albicans 529L.

“Also recorded” adds a separate entry of the source. Read-outs that look alike come from different tables or passages of the source. Where a SMILES comes first, the peptide text is derived from it. Bridges are numbered along the chain shown (N, C = ends).

As a reminder, the MIC is the lowest concentration that inhibits growth of the organism. Consider `CC[C@H](C)[C@H](NC(=O)[C@H](CCC(=O)O)NC(=O)[C@H](CS)NC(=O)[C@@H](NC(=O)CNC(=O)[C@H](CO)NC(=O)[C@H](CC(C)C)NC(=O)[C@H](CO)NC(=O)[C@H](CCC(=O)O)NC(=O)[C@H](CCCNC(=N)N)NC(=O)[C@@H](NC(=O)[C@H](C)NC(=O)[C@H](CS)NC(=O)[C@H](CCCNC(=N)N)NC(=O)CNC(=O)[C@@H](N)[C@@H](C)O)[C@@H](C)O)C(C)C)C(=O)N[C@@H](CO)C(=O)NCC(=O)N[C@@H](CCCNC(=N)N)C(=O)N[C@@H](CC(C)C)C(=O)N[C@@H](Cc1ccc(O)cc1)C(=O)N[C@@H](CCCNC(=N)N)C(=O)N[C@@H](CC(C)C)C(=O)N[C@@H](CS)C(=O)N[C@@H](CS)C(=O)N[C@@H](CCCNC(=N)N)C(=O)O` [HD-57-32] (H-TGRCATRESLSGVCEISGRLYRLCCR-OH; N-terminus and C-terminus assumed), for which the minimal inhibitory concentration (MIC) with A. baumannii 4-MRGN (4-MRGN, 12 h) was found to be 25 µM; against A. baumannii 4-MRGN (A. baumannii 4-MRGN, after 12 hours, listed as 7-32), 72.25 µg/mL; in the test with E. faecium 475747 (475747, 12 h) it was 25 µM; against E. faecium 475747 (E. faecium 475747, after 12 hours, listed as 7-32) it was 72.2 µg/mL; in the test on P. aeruginosa ATCC 27853 (ATCC 27853, 12 h), 50 µM; in the test with P. aeruginosa ATCC 27853 (P. aeruginosa ATCC 27853, after 12 hours, listed as 7-32), 144.5 µg/mL. The “antimicrobial activity in radial diffusion assay” value (“antimicrobial activity” for short) with commensal bacteria was “exhibited antimicrobial properties, albeit to a lesser extent than HD-51-9”; in the test with pathogenic bacteria it was “strong effect on the growth of every tested bacterium”.

On to `CC[C@H](C)[C@H](NC(=O)[C@H](CCC(=O)O)NC(=O)[C@H](CS)NC(=O)[C@@H](NC(=O)CNC(=O)[C@H](CO)NC(=O)[C@H](CC(C)C)NC(=O)[C@H](CO)NC(=O)[C@H](CCC(=O)O)NC(=O)[C@H](CCCNC(=N)N)NC(=O)[C@@H](NC(=O)[C@H](C)NC(=O)[C@@H](N)CS)[C@@H](C)O)C(C)C)C(=O)N[C@@H](CO)C(=O)NCC(=O)N[C@@H](CCCNC(=N)N)C(=O)N[C@@H](CC(C)C)C(=O)N[C@@H](Cc1ccc(O)cc1)C(=O)N[C@@H](CCCNC(=N)N)C(=O)N[C@@H](CC(C)C)C(=O)N[C@@H](CS)C(=O)N[C@@H](CS)C(=O)N[C@@H](CCCNC(=N)N)C(=O)O` [HD-510-32] (H-CATRESLSGVCEISGRLYRLCCR-OH; N-terminus and C-terminus assumed), for which the “antimicrobial activity” value in the test on pathogenic bacteria is given as “only minimally active or more selective in terms of different strains; also recorded: limited to the two Gram-positive bacteria”.

For `CC[C@H](C)[C@H](NC(=O)[C@H](CCC(=O)O)NC(=O)[C@H](CS)NC(=O)[C@@H](NC(=O)CNC(=O)[C@H](CO)NC(=O)[C@H](CC(C)C)NC(=O)[C@H](CO)NC(=O)[C@@H](N)CCC(=O)O)C(C)C)C(=O)N[C@@H](CO)C(=O)NCC(=O)N[C@@H](CCCNC(=N)N)C(=O)N[C@@H](CC(C)C)C(=O)N[C@@H](Cc1ccc(O)cc1)C(=O)N[C@@H](CCCNC(=N)N)C(=O)N[C@@H](CC(C)C)C(=O)N[C@@H](CS)C(=O)N[C@@H](CS)C(=O)N[C@@H](CCCNC(=N)N)C(=O)O` [HD-514-32] (H-ESLSGVCEISGRLYRLCCR-OH; N-terminus and C-terminus assumed), the “antimicrobial activity” value in the test on pathogenic bacteria was “inactive”.

Turning to `CC[C@H](C)[C@@H]1NC(=O)[C@H](CC(C)C)NC(=O)[C@@H]2CSSC[C@@H]3NC(=O)[C@H](CO)NC(=O)[C@@H](NC(=O)[C@@H](N)C(C)C)CSSC[C@@H](C(=O)N[C@H](C(=O)N[C@@H](CCCNC(=N)N)C(=O)N[C@H](C(=O)O)C(C)C)[C@@H](C)O)NC(=O)[C@H](CSSC[C@H](NC(=O)[C@H](Cc4ccccc4)NC(=O)[C@H](C(C)C)NC(=O)[C@H](CC(C)C)NC(=O)[C@H](CCCNC(=N)N)NC3=O)C(=O)N[C@@H](CCCNC(=N)N)C(=O)N[C@@H](CCCNC(=N)N)C(=O)N[C@@H]([C@@H](C)O)C(=O)N[C@@H](CCC(=O)O)C(=O)N[C@@H](CC(C)C)C(=O)N[C@@H](CCCNC(=N)N)C(=O)N[C@@H](C(C)C)C(=O)NCC(=O)N[C@@H](CC(N)=O)C(=O)N2)NC(=O)[C@H](Cc2ccc(O)cc2)NC(=O)[C@H]([C@@H](C)O)NC(=O)[C@H](Cc2ccccc2)NC(=O)[C@H](CO)NC(=O)[C@H](C(C)C)NC(=O)CNC(=O)CNC1=O` [HNP-4fl, reference compound] (H-VCSCRLVFCRRTELRVGNCLIGGVSFTYCCTRV-OH; disulfide 2-30, 4-19, 9-29 (inferred); N-terminus and C-terminus assumed), the minimum inhibitory concentration (MIC) in the test on A. baumannii 4-MRGN (4-MRGN, 12 h) turned out to be 12.5 µM; in the test on A. baumannii 4-MRGN (A. baumannii 4-MRGN, after 12 hours), 46.4 µg/mL; against A. baumannii DSM 30007 (A. baumannii DSM30007, after 12 hours), 11.6 µg/mL; against A. baumannii DSM 30007 (DSM 30007, 12 h), 3.125 µM; in the test on E. coli JM83 (E. coli JM83, after 12 hours), 46.4 µg/mL; against E. coli JM83 (JM83, 12 h), 12.5 µM. Also, the MIC against E. faecium 475747 (475747, 12 h) is 3.125 µM; in the test with E. faecium 475747 (E. faecium 475747, after 12 hours) it was 11.6 µg/mL; against E. faecium DSM 20477 (DSM 20477, 12 h) it was 6.25 µM; in the test on E. faecium DSM 20477 (E. faecium DSM20477, after 12 hours), 23.2 µg/mL; in the test with K. pneumoniae 3-MRGN it was “>>>”; against K. pneumoniae DSM 30104 (DSM 30104, 12 h), 100 µM. Further, the minimum inhibitory concentration (MIC) against K. pneumoniae DSM 30104 (K. pneumoniae DSM30104, after 12 hours) came to 371.5 µg/mL; in the test on P. aeruginosa 4-MRGN (4-MRGN, 12 h), 50 µM; against P. aeruginosa 4-MRGN (P. aeruginosa 4-MRGN, after 12 hours), 185.8 µg/mL; against P. aeruginosa ATCC 27853 (ATCC 27853, 12 h), 6.25 µM; with P. aeruginosa ATCC 27853 (P. aeruginosa ATCC 27853, after 12 hours), 23.2 µg/mL; in the test with P. aeruginosa PAO1 (P. aeruginosa PAO1, after 12 hours) it was 46.4 µg/mL. The MIC came to 12.5 µM in the test on P. aeruginosa PAO1 (PAO1, 12 h); 46.4 µg/mL with P. aeruginosa XPAT1 (P. aeruginosa XPAT1, after 12 hours); 12.5 µM with P. aeruginosa XPAT1 (XPAT1, 12 h); 46.4 µg/mL with P. aeruginosa XPAT2 (P. aeruginosa XPAT2, after 12 hours); 12.5 µM in the test with P. aeruginosa XPAT2 (XPAT2, 12 h); 6.25 µM with S. aureus ATCC 25923 (ATCC 25923, 12 h). The MIC with S. aureus ATCC 25923 (S. aureus ATCC25923, after 12 hours) was determined as 23.2 µg/mL; with S. aureus USA300 (S. aureus USA300, after 12 hours), 23.2 µg/mL; against S. aureus USA300 (USA300, 12 h) it was 6.25 µM; against Y. enterocolitica (12 h), 12.5 µM; in the test on Y. enterocolitica (Y. enterocolitica, after 12 hours), 46.4 µg/mL; against C. albicans 529L (529L, 24 h) it was 50 µM. The MIC against C. albicans 529L (C. albicans 529L, after 24 hours (Table 5)) turned out to be 185.8 µg/mL.

Take “CATRESLSGVCEISGRLY (listed as Homo sapiens) [HD-510-27, HD-5 fragment 10-27]”: the “antimicrobial activity” value was “did not exhibit measurable activity” in the test with commensal bacteria and “inactive” in the test with pathogenic bacteria.

Regarding “LYRLCCR (listed as Homo sapiens) [HD-526-32, HD-5 fragment 26-32]”, the “antimicrobial activity” value in the test with commensal bacteria is “exhibited antimicrobial properties, albeit to a lesser extent than HD-51-9”; with pathogenic bacteria it was “only minimally active or more selective in terms of different strains”.

Source of the values: patent US12358949B2, “Defensin fragments for use in therapy or prophylaxis” (priority 2019, dated 2025).
